Source: ChEMBL document CHEMBL5335843, “Application of tobramycin benzyl ether as an antibiotic adjuvant capable of sensitizing multidrug-resistant Gram-negative bacteria to rifampicin” (2024)
≈ marks a conversion by molar mass, not a printed value. Calls of active or inactive are those of the source. The rule behind the calls is not given here. Positions of bridges follow the written chain, without caps; N, C: chain ends. Non-standard residues stand in square brackets, D forms with d. Residues, ends and D or L forms follow the SMILES beside them. *: point of attachment. X1 = CC[C@H](C)CCCCC(=O)*; dDab = NCC[C@@H](N)C(=O)O; Dab = NCC[C@H](N)C(=O)O

Columns and labels:
Type in all cases: functional
Acinetobacter baumannii [1] = assay: Antibacterial activity against Acinetobacter baumannii ATCC 17978 assessed as inhibition of bacterial growth incubated for 18 hrs by two fold broth microdilution assay
Pseudomonas aeruginosa [2] = assay: Antibacterial activity against Pseudomonas aeruginosa PAO1 assessed as inhibition of bacterial growth incubated for 18 hrs by two fold broth microdilution assay
Acinetobacter baumannii [3] = assay: Antibiotic adjuvant activity against Acinetobacter baumannii ATCC 17978 assessed as rifampicin MIC incubated for 18 hrs in presence of Rifampicin by two fold broth microdilution checkerboard assay
Escherichia coli [4] = assay: Antibiotic adjuvant activity against Escherichia coli ATCC 25922 assessed as rifampicin MIC incubated for 18 hrs in presence of Rifampicin by two fold broth microdilution checkerboard assay
Acinetobacter baumannii [5] = assay: Antibiotic adjuvant activity against Acinetobacter baumannii ATCC 17978 assessed as fold potentiation incubated for 18 hrs in presence of Rifampicin by two fold broth microdilution checkerboard assay
Escherichia coli [6] = assay: Antibacterial activity against Escherichia coli ATCC 25922 assessed as inhibition of bacterial growth incubated for 18 hrs by two fold broth microdilution assay
Pseudomonas aeruginosa [7] = assay: Antibiotic adjuvant activity against Pseudomonas aeruginosa PAO1 assessed as fold potentiation incubated for 18 hrs in presence of Rifampicin by two fold broth microdilution checkerboard assay
Staphylococcus aureus [8] = assay: Antibiotic adjuvant activity against methicilin-resistant Staphylococcus aureus assessed as inhibition of bacterial growth incubated for 18 hrs in presence of rifampicin by two fold broth microdilution checkerboard assay
Enterococcus faecium [9] = assay: Antibiotic adjuvant activity against Enterococcus faecium 114278 assessed as inhibition of bacterial growth incubated for 18 hrs in presence of rifampicin by two fold broth microdilution checkerboard assay
Enterococcus faecium [10] = assay: Antibiotic adjuvant activity against Enterococcus faecium 128149 assessed as inhibition of bacterial growth incubated for 18 hrs in presence of rifampicin by two fold broth microdilution checkerboard assay
Escherichia coli [11] = assay: Antibiotic adjuvant activity against Escherichia coli ATCC 25922 assessed as fold potentiation incubated for 18 hrs in presence of Rifampicin by two fold broth microdilution checkerboard assay
Acinetobacter baumannii [12] = assay: Antibacterial activity against multi-drug resistant Acinetobacter baumannii clinical isolate LAC-4 assessed as inhibition of bacterial growth incubated for 18 hrs by two fold broth microdilution assay
Acinetobacter baumannii [13] = assay: Antibacterial activity against multi-drug resistant Acinetobacter baumannii clinical isolate AB031 assessed as inhibition of bacterial growth incubated for 18 hrs by two fold broth microdilution assay
Pseudomonas aeruginosa [14] = assay: Antibacterial activity against multi-drug resistant Pseudomonas aeruginosa clinical isolate PA262 assessed as inhibition of bacterial growth incubated for 18 hrs by two fold broth microdilution assay
Pseudomonas aeruginosa [15] = assay: Antibacterial activity against multi-drug resistant Pseudomonas aeruginosa clinical isolate PA259 assessed as inhibition of bacterial growth incubated for 18 hrs by two fold broth microdilution assay
Enterococcus faecium [16] = assay: Antibacterial activity against Enterococcus faecium 128149 assessed as inhibition of bacterial growth incubated for 18 hrs by two fold broth microdilution assay
Pseudomonas aeruginosa [17] = assay: Antibacterial activity against multi-drug resistant Pseudomonas aeruginosa clinical isolate 101243 assessed as inhibition of bacterial growth incubated for 18 hrs by two fold broth microdilution assay
Escherichia coli [18] = assay: Antibacterial activity against multi-drug resistant Escherichia coli clinical isolate 94474 assessed as inhibition of bacterial growth incubated for 18 hrs by two fold broth microdilution assay
Staphylococcus aureus [19] = assay: Antibacterial activity against methicilin-resistant Staphylococcus aureus assessed as inhibition of bacterial growth incubated for 18 hrs by two fold broth microdilution assay
Acinetobacter baumannii [20] = assay: Antibacterial activity against multi-drug resistant Acinetobacter baumannii clinical isolate 110193 assessed as inhibition of bacterial growth incubated for 18 hrs by two fold broth microdilution assay
Escherichia coli [21] = assay: Antibacterial activity against multi-drug resistant Escherichia coli clinical isolate 107115 assessed as inhibition of bacterial growth incubated for 18 hrs by two fold broth microdilution assay
Pseudomonas aeruginosa [22] = assay: Antibacterial activity against multi-drug resistant Pseudomonas aeruginosa clinical isolate 114228 assessed as inhibition of bacterial growth incubated for 18 hrs by two fold broth microdilution assay
Acinetobacter baumannii [23] = assay: Antibacterial activity against multi-drug resistant Acinetobacter baumannii clinical isolate 92247 assessed as inhibition of bacterial growth incubated for 18 hrs by two fold broth microdilution assay
Escherichia coli [24] = assay: Antibacterial activity against multi-drug resistant Escherichia coli clinical isolate 94393 assessed as inhibition of bacterial growth incubated for 18 hrs by two fold broth microdilution assay
Acinetobacter baumannii [25] = assay: Antibacterial activity against multi-drug resistant Acinetobacter baumannii clinical isolate AB027 assessed as inhibition of bacterial growth incubated for 18 hrs by two fold broth microdilution assay
Enterococcus faecium [26] = assay: Antibacterial activity against Enterococcus faecium 114278 assessed as inhibition of bacterial growth incubated for 18 hrs by two fold broth microdilution assay
Pseudomonas aeruginosa [27] = assay: Antibacterial activity against multi-drug resistant Pseudomonas aeruginosa clinical isolate PA264 assessed as inhibition of bacterial growth incubated for 18 hrs by two fold broth microdilution assay

Compound: NC[C@H]1O[C@H](O[C@H]2[C@H](OC(=O)Nc3ccc(Cl)cc3)[C@@H](O[C@H]3O[C@H](COC(=O)Nc4ccc(Cl)cc4)[C@@H](OC(=O)Nc4ccc(Cl)cc4)[C@H](N)[C@H]3OC(=O)Nc3ccc(Cl)cc3)[C@H](N)C[C@@H]2N)[C@H](N)C[C@@H]1OC(=O)Nc1ccc(Cl)cc1.O=C(O)C(F)(F)F
- MIC (Acinetobacter baumannii [1]): 32 µg/mL
- MIC (Pseudomonas aeruginosa [2]): 64 µg/mL
- MIC (Acinetobacter baumannii [3]): 0.004 µg/mL
- MIC (Escherichia coli [4]): 0.5 µg/mL
- fold change (FC) (Acinetobacter baumannii [5]): 16
- MIC (Escherichia coli [6]): 32 µg/mL
- fold change (FC) (Pseudomonas aeruginosa [7]): 1

Compound: Cl.NC[C@H]1O[C@H](O[C@H]2[C@H](OCc3cc(Cl)cc(Cl)c3)[C@@H](O[C@H]3O[C@H](COCc4cc(Cl)cc(Cl)c4)[C@@H](OCc4cc(Cl)cc(Cl)c4)[C@H](N)[C@H]3OCc3cc(Cl)cc(Cl)c3)[C@H](N)C[C@@H]2N)[C@H](N)C[C@@H]1OCc1cc(Cl)cc(Cl)c1
- MIC (Acinetobacter baumannii [1]): > 128 µg/mL
- MIC (Pseudomonas aeruginosa [2]): > 128 µg/mL
- MIC (Escherichia coli [6]): > 128 µg/mL

Compound: Cl.NC[C@H]1O[C@H](O[C@H]2[C@H](OCc3ccc(-c4ccccc4)cc3)[C@@H](O[C@H]3O[C@H](COCc4ccc(-c5ccccc5)cc4)[C@@H](OCc4ccc(-c5ccccc5)cc4)[C@H](N)[C@H]3OCc3ccc(-c4ccccc4)cc3)[C@H](N)C[C@@H]2N)[C@H](N)C[C@@H]1OCc1ccc(-c2ccccc2)cc1
- MIC (Acinetobacter baumannii [1]): > 128 µg/mL
- MIC (Pseudomonas aeruginosa [2]): > 128 µg/mL
- MIC (Escherichia coli [6]): > 128 µg/mL

Compound: CC[C@H](C)CCCCC(=O)N[C@@H](CCN)C(=O)N[C@H](C(=O)N[C@@H](CCN)C(=O)N[C@H]1CCNC(=O)[C@H]([C@@H](C)O)NC(=O)[C@H](CCN)NC(=O)[C@H](CCN)NC(=O)[C@H](CC(C)C)NC(=O)[C@@H](Cc2ccccc2)NC(=O)[C@@H](CCN)NC1=O)[C@@H](C)O (X1-[Dab]T[Dab][Dab][dDab][dF]L[Dab][Dab]T; lactam 4-C)
- Activity (Staphylococcus aureus [8]): Active
- Activity (Enterococcus faecium [9]): Active
- Activity (Enterococcus faecium [10]): Active

Compound: CC(C)(C)c1ccc(COC[C@H]2O[C@H](O[C@@H]3[C@@H](OCc4ccc(C(C)(C)C)cc4)[C@H](O[C@H]4O[C@H](CN)[C@@H](OCc5ccc(C(C)(C)C)cc5)C[C@H]4N)[C@@H](N)C[C@H]3N)[C@H](OCc3ccc(C(C)(C)C)cc3)[C@@H](N)[C@@H]2OCc2ccc(C(C)(C)C)cc2)cc1.Cl
- MIC (Acinetobacter baumannii [1]): > 128 µg/mL
- MIC (Pseudomonas aeruginosa [2]): > 128 µg/mL
- MIC (Escherichia coli [6]): > 128 µg/mL

Compound: CC(C)CCO[C@@H]1[C@@H](OCCC(C)C)[C@H](N)C[C@H](N)[C@H]1O[C@H]1O[C@H](CN)[C@@H](OCCC(C)C)C[C@H]1N.Cl
- MIC (Acinetobacter baumannii [1]): > 128 µg/mL
- MIC (Pseudomonas aeruginosa [2]): > 128 µg/mL
- fold change (FC) (Escherichia coli [11]): 512
- MIC (Acinetobacter baumannii [3]): 0.5 µg/mL
- MIC (Escherichia coli [4]): 0.0156 µg/mL
- fold change (FC) (Acinetobacter baumannii [5]): 4
- MIC (Escherichia coli [6]): > 128 µg/mL
- fold change (FC) (Pseudomonas aeruginosa [7]): 4

Compound: NC[C@H]1O[C@H](O[C@H]2[C@H](OC(=O)Nc3ccccc3)[C@@H](O[C@H]3O[C@H](COC(=O)Nc4ccccc4)[C@@H](OC(=O)Nc4ccccc4)[C@H](N)[C@H]3OC(=O)Nc3ccccc3)[C@H](N)C[C@@H]2N)[C@H](N)C[C@@H]1OC(=O)Nc1ccccc1.O=C(O)C(F)(F)F
- MIC (Acinetobacter baumannii [1]): > 128 µg/mL
- MIC (Pseudomonas aeruginosa [2]): 64 µg/mL
- MIC (Acinetobacter baumannii [3]): 0.0312 µg/mL
- MIC (Escherichia coli [4]): 0.008 µg/mL
- fold change (FC) (Acinetobacter baumannii [5]): 16
- MIC (Escherichia coli [6]): 32 µg/mL
- fold change (FC) (Pseudomonas aeruginosa [7]): 1

Compound: CO[C@H]1/C=C/O[C@@]2(C)Oc3c(C)c(O)c4c(O)c(c(/C=N/N5CCN(C)CC5)c(O)c4c3C2=O)NC(=O)/C(C)=C\C=C\[C@H](C)[C@H](O)[C@@H](C)[C@@H](O)[C@@H](C)[C@H](OC(C)=O)[C@@H]1C [RIFAMPIN]
- MIC (Acinetobacter baumannii [12]): 2 µg/mL (≈ 2.43 µM)
- MIC (Acinetobacter baumannii [13]): 2 µg/mL (≈ 2.43 µM)
- MIC (Pseudomonas aeruginosa [14]): 512 µg/mL (≈ 622 µM)
- MIC (Pseudomonas aeruginosa [15]): 16 µg/mL (≈ 19.4 µM)
- MIC (Enterococcus faecium [16]): 8 µg/mL (≈ 9.72 µM)
- MIC (Pseudomonas aeruginosa [17]): 4 µg/mL (≈ 4.86 µM)
- MIC (Escherichia coli [18]): 8 µg/mL (≈ 9.72 µM)
- MIC (Staphylococcus aureus [19]): 256 µg/mL (≈ 311 µM)
- MIC (Acinetobacter baumannii [20]): 4 µg/mL (≈ 4.86 µM)
- MIC (Escherichia coli [21]): 128 µg/mL (≈ 156 µM)
- MIC (Pseudomonas aeruginosa [22]): 16 µg/mL (≈ 19.4 µM)
- MIC (Acinetobacter baumannii [23]): 4 µg/mL (≈ 4.86 µM)
- MIC (Escherichia coli [24]): 32 µg/mL (≈ 38.9 µM)
- MIC (Acinetobacter baumannii [25]): 8 µg/mL (≈ 9.72 µM)
- MIC (Enterococcus faecium [26]): 4 µg/mL (≈ 4.86 µM)
- MIC (Pseudomonas aeruginosa [27]): 16 µg/mL (≈ 19.4 µM)
